Source: patent US11021467B2, “Phosphatidylinositol 3-kinase inhibitors” (Gilead Sciences, Inc., priority 2014, dated 2021)

What was measured:
Assay in all cases: TR-FRET enzymatic activity assay against PI3K isoforms
Format in all cases: biochemical
[1] = biological target: PI3Kγ (Homo sapiens (Human), UniProt P48736); details: 2×Km ATP, 30 minutes at 25° C.
Source text: (§1) The compounds of formula (I) were characterized for their enzymatic activity against the PI3K isoforms. […] TR-FRET monitored the formation of 3,4,5-inositol triphosphate molecule that competed with fluorescently labeled PIP3 for binding to the GRP-1 pleckstrin homology domain protein.

[2] = biological target: PI3Kδ (Homo sapiens (Human), UniProt O00329); details: 2×Km ATP, 30 minutes at 25° C.
Source text: as §1

[3] = biological target: PI3Kβ (Homo sapiens (Human), UniProt P42338); details: PI3Kβ, TR-FRET, 2×Km ATP, 30 minutes at 25° C.
Source text: as §1

PI3Kγ, sequence (P48736 whole entry, the tested form may be a part, canonical isoform): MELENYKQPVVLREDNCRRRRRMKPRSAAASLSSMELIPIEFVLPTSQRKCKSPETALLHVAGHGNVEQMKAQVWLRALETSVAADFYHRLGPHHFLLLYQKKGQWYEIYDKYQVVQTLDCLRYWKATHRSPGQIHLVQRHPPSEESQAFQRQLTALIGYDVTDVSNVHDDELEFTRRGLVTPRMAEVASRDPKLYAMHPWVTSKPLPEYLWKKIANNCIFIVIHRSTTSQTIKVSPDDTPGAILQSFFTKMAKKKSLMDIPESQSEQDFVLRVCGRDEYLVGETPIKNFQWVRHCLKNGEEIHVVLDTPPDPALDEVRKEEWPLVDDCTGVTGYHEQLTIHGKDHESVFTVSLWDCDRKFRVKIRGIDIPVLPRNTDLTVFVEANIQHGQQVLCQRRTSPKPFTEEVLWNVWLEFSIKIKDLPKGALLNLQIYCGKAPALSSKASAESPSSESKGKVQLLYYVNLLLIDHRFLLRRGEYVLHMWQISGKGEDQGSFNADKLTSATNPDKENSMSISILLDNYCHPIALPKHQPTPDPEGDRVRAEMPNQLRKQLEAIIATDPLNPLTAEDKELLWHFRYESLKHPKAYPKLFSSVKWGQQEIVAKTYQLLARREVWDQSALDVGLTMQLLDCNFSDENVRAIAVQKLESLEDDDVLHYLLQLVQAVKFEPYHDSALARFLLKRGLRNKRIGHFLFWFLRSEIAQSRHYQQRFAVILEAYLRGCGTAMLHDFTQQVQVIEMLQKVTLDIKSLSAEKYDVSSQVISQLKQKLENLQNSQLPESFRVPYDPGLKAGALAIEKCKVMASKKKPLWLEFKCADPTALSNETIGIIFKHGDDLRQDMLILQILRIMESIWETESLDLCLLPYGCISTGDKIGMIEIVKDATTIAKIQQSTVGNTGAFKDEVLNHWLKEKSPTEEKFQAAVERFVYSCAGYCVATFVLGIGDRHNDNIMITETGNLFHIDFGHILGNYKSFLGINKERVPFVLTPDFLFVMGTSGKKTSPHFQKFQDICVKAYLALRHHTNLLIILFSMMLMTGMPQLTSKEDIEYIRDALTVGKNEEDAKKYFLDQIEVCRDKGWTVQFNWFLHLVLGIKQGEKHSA
PI3Kβ, sequence (P42338 whole entry): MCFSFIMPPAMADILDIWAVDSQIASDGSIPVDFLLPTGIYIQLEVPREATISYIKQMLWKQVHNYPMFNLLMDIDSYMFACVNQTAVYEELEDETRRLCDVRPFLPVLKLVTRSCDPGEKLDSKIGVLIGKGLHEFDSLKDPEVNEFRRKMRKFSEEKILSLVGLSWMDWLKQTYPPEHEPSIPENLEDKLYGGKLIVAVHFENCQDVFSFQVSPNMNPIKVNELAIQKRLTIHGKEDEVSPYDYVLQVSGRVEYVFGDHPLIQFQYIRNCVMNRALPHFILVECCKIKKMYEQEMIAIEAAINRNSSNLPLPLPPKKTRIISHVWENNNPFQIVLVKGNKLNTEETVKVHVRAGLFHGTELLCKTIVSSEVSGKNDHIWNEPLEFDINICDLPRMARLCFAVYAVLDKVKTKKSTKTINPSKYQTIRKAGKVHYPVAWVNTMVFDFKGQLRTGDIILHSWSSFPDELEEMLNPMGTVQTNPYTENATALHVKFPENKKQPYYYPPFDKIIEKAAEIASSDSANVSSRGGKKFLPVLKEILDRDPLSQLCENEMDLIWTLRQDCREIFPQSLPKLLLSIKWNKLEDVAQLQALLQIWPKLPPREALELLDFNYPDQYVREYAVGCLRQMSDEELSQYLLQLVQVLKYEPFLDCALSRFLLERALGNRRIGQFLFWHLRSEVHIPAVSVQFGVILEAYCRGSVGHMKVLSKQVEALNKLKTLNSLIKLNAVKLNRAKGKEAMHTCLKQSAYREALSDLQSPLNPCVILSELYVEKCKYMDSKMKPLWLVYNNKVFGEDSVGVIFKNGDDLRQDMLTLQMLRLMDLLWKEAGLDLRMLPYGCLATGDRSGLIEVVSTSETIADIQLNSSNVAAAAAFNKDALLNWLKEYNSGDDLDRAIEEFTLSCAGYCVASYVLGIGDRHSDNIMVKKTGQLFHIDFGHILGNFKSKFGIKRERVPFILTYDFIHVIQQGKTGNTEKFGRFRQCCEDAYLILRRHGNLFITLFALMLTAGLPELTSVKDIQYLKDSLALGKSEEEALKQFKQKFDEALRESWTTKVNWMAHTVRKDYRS
PI3Kβ, sequence (P27986 whole entry partner): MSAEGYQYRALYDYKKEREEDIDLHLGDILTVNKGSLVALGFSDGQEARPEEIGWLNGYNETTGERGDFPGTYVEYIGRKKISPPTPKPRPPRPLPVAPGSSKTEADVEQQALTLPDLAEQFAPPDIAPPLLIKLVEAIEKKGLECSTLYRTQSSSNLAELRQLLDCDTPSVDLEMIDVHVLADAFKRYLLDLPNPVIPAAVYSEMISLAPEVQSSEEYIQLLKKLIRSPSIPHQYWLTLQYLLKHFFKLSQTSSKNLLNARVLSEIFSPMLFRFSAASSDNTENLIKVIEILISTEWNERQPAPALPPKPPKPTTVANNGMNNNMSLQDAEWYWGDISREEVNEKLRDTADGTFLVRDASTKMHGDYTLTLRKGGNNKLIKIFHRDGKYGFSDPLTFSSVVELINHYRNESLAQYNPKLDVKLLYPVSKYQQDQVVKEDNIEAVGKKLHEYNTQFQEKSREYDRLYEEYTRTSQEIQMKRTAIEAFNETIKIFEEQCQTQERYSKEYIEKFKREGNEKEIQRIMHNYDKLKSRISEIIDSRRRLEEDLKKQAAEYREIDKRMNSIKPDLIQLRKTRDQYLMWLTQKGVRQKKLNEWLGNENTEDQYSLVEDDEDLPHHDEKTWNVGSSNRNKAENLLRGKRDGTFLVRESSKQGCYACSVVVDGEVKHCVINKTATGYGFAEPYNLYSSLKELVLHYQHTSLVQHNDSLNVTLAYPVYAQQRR
PI3Kδ, sequence (O00329 whole entry): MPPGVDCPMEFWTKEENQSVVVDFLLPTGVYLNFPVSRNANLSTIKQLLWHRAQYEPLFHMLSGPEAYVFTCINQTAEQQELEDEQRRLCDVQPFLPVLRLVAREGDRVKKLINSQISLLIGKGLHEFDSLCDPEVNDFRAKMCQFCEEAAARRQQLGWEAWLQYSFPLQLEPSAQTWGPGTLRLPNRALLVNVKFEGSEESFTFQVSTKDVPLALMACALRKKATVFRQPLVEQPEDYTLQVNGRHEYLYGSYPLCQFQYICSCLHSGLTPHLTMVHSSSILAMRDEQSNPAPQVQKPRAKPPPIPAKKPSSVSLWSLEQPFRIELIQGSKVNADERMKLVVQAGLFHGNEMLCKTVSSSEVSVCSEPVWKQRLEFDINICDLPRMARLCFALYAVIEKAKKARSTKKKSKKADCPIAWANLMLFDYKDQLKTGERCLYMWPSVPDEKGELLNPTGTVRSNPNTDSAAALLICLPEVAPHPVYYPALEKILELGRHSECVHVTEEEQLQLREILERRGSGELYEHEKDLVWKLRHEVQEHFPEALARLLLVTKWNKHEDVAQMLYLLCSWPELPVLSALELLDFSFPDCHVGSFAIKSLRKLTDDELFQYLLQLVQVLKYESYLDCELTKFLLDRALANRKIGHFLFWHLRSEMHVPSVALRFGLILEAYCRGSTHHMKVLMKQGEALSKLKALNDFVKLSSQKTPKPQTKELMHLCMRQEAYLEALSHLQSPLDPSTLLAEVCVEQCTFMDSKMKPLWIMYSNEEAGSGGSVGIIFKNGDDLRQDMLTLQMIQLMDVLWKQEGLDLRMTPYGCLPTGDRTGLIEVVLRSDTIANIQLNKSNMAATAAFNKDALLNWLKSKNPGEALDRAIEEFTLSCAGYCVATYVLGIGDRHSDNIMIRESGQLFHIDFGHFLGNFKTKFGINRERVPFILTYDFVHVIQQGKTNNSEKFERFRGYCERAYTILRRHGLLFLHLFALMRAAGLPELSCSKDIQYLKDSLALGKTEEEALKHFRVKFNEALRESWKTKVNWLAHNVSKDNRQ
PI3Kδ, sequence (P27986 whole entry partner): as the sequence (P27986 whole entry partner) above

| SMILES | IC50 [1] [nM] | IC50 [2] [nM] | IC50 [3] [nM] |
| --- | --- | --- | --- |
| C[C@H](Nc1ncnc(N)c1C#N)c1nc2cccc(Cl)c2c(=O)n1N(C)CCN [Compound 17, (S)-4-amino-6-((1-(3-((2-aminoethyl)(methyl)amino)-5-chloro-4-oxo-3,4-dihydroquinazolin-2-yl)ethyl)amino)pyrimidine-5-carbonitrile] | ≥ 10000 | 11 | 69 |
| C[C@H](NC(=O)c1nccnc1N)c1nc2cccc(Cl)c2c(=O)n1CCCN [Compound 18, (S)-3-amino-N-(1-(3-(3-aminopropyl)-5-chloro-4-oxo-3,4-dihydroquinazolin-2-yl)ethyl)pyrazine-2-carboxamide] | ≥ 10000 | 370 | 360 |
| C[C@H](Nc1ncnc2[nH]cnc12)c1nc2cccc(Cl)c2c(=O)n1CCCN1CCOCC1 [Compound 19, (S)-2-(1-((9H-purin-6-yl)amino)ethyl)-5-chloro-3-(3-morpholinopropyl)quinazolin-4(3H)-one] | ≥ 10000 | 14 | 1300 |
| Cc1ncnc(N[C@@H](C)c2nc3cccc(Cl)c3c(=O)n2CCCN)c1C#N [Compound 23, (S)-4-((1-(3-(3-aminopropyl)-5-chloro-4-oxo-3,4-dihydroquinazolin-2-yl)ethyl)amino)-6-methylpyrimidine-5-carbonitrile] | ≥ 10000 | 25 | 90 |
| CC(CCN)n1c([C@H](C)Nc2ncnc(N)c2C#N)nc2cccc(Cl)c2c1=O (stereo partly drawn) [Compound 24, 4-amino-6-(((1S)-1-(3-(4-aminobutan-2-yl)-5-chloro-4-oxo-3,4-dihydroquinazolin-2-yl)ethyl)amino)pyrimidine-5-carbonitrile] | ≥ 10000 | 6 | 51 |
| CC(CN)n1c([C@H](C)Nc2ncnc(N)c2C#N)nc2cccc(Cl)c2c1=O (stereo partly drawn) [Compound 25, 4-amino-6-(((1S)-1-(3-(1-aminopropan-2-yl)-5-chloro-4-oxo-3,4-dihydroquinazolin-2-yl)ethyl)amino)pyrimidine-5-carbonitrile] | ≥ 10000 | 100 | 1300 |
| C[C@H](Nc1ncnc(N)c1C#N)c1nc2cccc(Cl)c2c(=O)n1CCN [Compound 26, (S)-4-amino-6-((1-(3-(2-aminoethyl)-5-chloro-4-oxo-3,4-dihydroquinazolin-2-yl)ethyl)amino)pyrimidine-5-carbonitrile] | ≥ 10000 | 150 | 740 |
| CC(CN)Cn1c([C@H](C)Nc2ncnc(N)c2C#N)nc2cccc(Cl)c2c1=O (stereo partly drawn) [Compound 27, 4-amino-6-(((1S)-1-(3-(3-amino-2-methylpropyl)-5-chloro-4-oxo-3,4-dihydroquinazolin-2-yl)ethyl)amino)pyrimidine-5-carbonitrile] | ≥ 10000 | 7 | 200 |
| C[C@H](Nc1ncnc(N)c1C#N)c1nc2cccc(Cl)c2c(=O)n1CCCCN [Compound 28, (S)-4-amino-6-((1-(3-(4-aminobutyl)-5-chloro-4-oxo-3,4-dihydroquinazolin-2-yl)ethyl)amino)pyrimidine-5-carbonitrile] | ≥ 10000 | 3 | 100 |
| Cc1cccc2nc([C@H](C)Nc3ncnc(N)c3C#N)n(CCCN)c(=O)c12 [Compound 29, (S)-4-amino-6-((1-(3-(3-aminopropyl)-5-methyl-4-oxo-3,4-dihydroquinazolin-2-yl)ethyl)amino)pyrimidine-5-carbonitrile] | ≥ 10000 | 7 | 47 |
| C[C@H](Nc1ncnc(N)c1Cl)c1nc2cccc(Cl)c2c(=O)n1CCCN [Compound 30, (S)-2-(1-((6-amino-5-chloropyrimidin-4-yl)amino)ethyl)-3-(3-aminopropyl)-5-chloroquinazolin-4(3H)-one] | ≥ 10000 | 11 | 110 |
| CNCCCn1c([C@H](C)Nc2ncnc(N)c2C#N)nc2cccc(Cl)c2c1=O [Compound 31, (S)-4-amino-6-((1-(5-chloro-3-(3-(methylamino)propyl)-4-oxo-3,4-dihydroquinazolin-2-yl)ethyl)amino)pyrimidine-5-carbonitrile] | ≥ 10000 | 6 | 47 |
| C[C@H](NC(=O)c1c(N)nn2cccnc12)c1nc2cccc(Cl)c2c(=O)n1CCCN [Compound 32, (S)-2-amino-N-(1-(3-(3-aminopropyl)-5-chloro-4-oxo-3,4-dihydroquinazolin-2-yl)ethyl)pyrazolo[1,5-a]pyrimidine-3-carboxamide] | 3200 | 92 | 44 |
| CC(C)C[C@H](Nc1ncnc(N)c1C#N)c1nc2cccc(Cl)c2c(=O)n1CCCN [Compound 33, (S)-4-amino-6-((1-(3-(3-aminopropyl)-5-chloro-4-oxo-3,4-dihydroquinazolin-2-yl)-3-methylbutyl)amino)pyrimidine-5-carbonitrile] | ≥ 10000 | 210 | 2100 |
| CC[C@H](Nc1ncnc(N)c1C#N)c1nc2cccc(Cl)c2c(=O)n1CCCN [Compound 34, (S)-4-amino-6-((1-(3-(3-aminopropyl)-5-chloro-4-oxo-3,4-dihydroquinazolin-2-yl)propyl)amino)pyrimidine-5-carbonitrile] | ≥ 10000 | 79 | 250 |
| NCCCn1c([C@@H](Nc2ncnn3ccnc23)C2CC2)nc2cccc(Cl)c2c1=O [Compound 35, (S)-3-(3-aminopropyl)-5-chloro-2-(cyclopropyl(imidazo[2,1-][1,2,4]triazin-4-ylamino)methyl)quinazolin-4(3H)-one] | ≥ 10000 | 21 | 110 |
| CC[C@H](Nc1nc(N)nc(N)c1C#N)c1nc2cccc(Cl)c2c(=O)n1CCCN [Compound 36, (S)-2,4-diamino-6-((1-(3-(3-aminopropyl)-5-chloro-4-oxo-3,4-dihydroquinazolin-2-yl)propyl)amino)pyrimidine-5-carbonitrile] | 8200 | 27 | 71 |
| NCCCn1c([C@@H](Nc2ncnc3cccnc23)C2CC2)nc2cccc(Cl)c2c1=O [Compound 37, (S)-3-(3-aminopropyl)-5-chloro-2-(cyclopropyl(pyrido[3,2-d]pyrimidin-4-ylamino)methyl)quinazolin-4(3H)-one] | 4800 | 16 | 57 |
| NCCCn1c([C@@H](Nc2nc(N)nc(N)c2Cl)C2CC2)nc2cccc(Cl)c2c1=O [Compound 38, (S)-3-(3-aminopropyl)-5-chloro-2-(cyclopropyl((2,6-diamino-5-chloropyrimidin-4-yl)amino)methyl)quinazolin-4(3H)-one] | ≥ 10000 | 12 | 44 |
| CNCCCn1c([C@H](C)Nc2nc(N)nc(N)c2C#N)nc2cccc(Cl)c2c1=O [Compound 39, (S)-2,4-diamino-6-((1-(5-chloro-3-(3-(methylamino)propyl)-4-oxo-3,4-dihydroquinazolin-2-yl)ethyl)amino)pyrimidine-5-carbonitrile] | 2400 | 3 | 25 |
| N#Cc1c(N)ncnc1N[C@H](c1nc2cccc(Cl)c2c(=O)n1CCCN)C1CC1 [Compound 40, (S)-4-amino-6-(((3-(3-aminopropyl)-5-chloro-4-oxo-3,4-dihydroquinazolin-2-yl)(cyclopropyl)methyl)amino)pyrimidine-5-carbonitrile] | ≥ 10000 | 9 | 21 |
| CNCCCn1c([C@H](C)Nc2nc(N)nc(C)c2C#N)nc2cccc(Cl)c2c1=O [Compound 41, (S)-2-amino-4-((1-(5-chloro-3-(3-(methylamino)propyl)-4-oxo-3,4-dihydroquinazolin-2-yl)ethyl)amino)-6-methylpyrimidine-5-carbonitrile] | 1800 | 3 | 15 |
| C[C@H](Nc1nc(N)nc(N)c1C#N)c1nc2cccc(Cl)c2c(=O)n1CCCN [Compound 42, (S)-2,4-diamino-6-((1-(3-(3-aminopropyl)-5-chloro-4-oxo-3,4-dihydroquinazolin-2-yl)ethyl)amino)pyrimidine-5-carbonitrile] | 1400 | 2 | 15 |
| NCCCn1c([C@@H](Nc2ncnc3[nH]cc(Br)c23)C2CC2)nc2cccc(Cl)c2c1=O [Compound 43, (S)-3-(3-aminopropyl)-2-(((5-bromo-7H-pyrrolo[2,3-d]pyrimidin-4-yl)amino)(cyclopropyl)methyl)-5-chloroquinazolin-4(3H)-one] | 3400 | 6 | 7 |
| N#Cc1c(Cl)nc(N)nc1N[C@H](c1nc2cccc(Cl)c2c(=O)n1CCCN)C1CC1 [Compound 44, (S)-2-amino-4-(((3-(3-aminopropyl)-5-chloro-4-oxo-3,4-dihydroquinazolin-2-yl)(cyclopropyl)methyl)amino)-6-chloropyrimidine-5-carbonitrile] | 6000 | 11 | 8 |
| NCCCn1c([C@@H](Nc2ncnc3scnc23)C2CC2)nc2cccc(Cl)c2c1=O [Compound 45, (S)-3-(3-aminopropyl)-5-chloro-2-(cyclopropyl(thiazolo[5,4-d]pyrimidin-7-ylamino)methyl)quinazolin-4(3H)-one] | 2100 | 4 | 7 |
| CNCCCn1c([C@@H](Nc2nc(N)nc(N)c2C#N)C2CC2)nc2cccc(Cl)c2c1=O [Compound 46, (S)-2,4-diamino-6-(((5-chloro-3-(3-(methylamino)propyl)-4-oxo-3,4-dihydroquinazolin-2-yl)(cyclopropyl)methyl)amino)pyrimidine-5-carbonitrile] | 2500 | 3 | 6 |
